≈ marks a conversion by molar mass, not a printed value. Non-standard residues stand in square brackets, D forms with d. Residues, ends and D or L forms follow the SMILES beside them. His(τ-Bzl) = N[C@@H](Cc1cn(Cc2ccccc2)cn1)C(=O)O; Phe(4-Me) = Cc1ccc(C[C@H](N)C(=O)O)cc1; Cha = N[C@@H](CC1CCCCC1)C(=O)O; Phg = N[C@H](C(=O)O)c1ccccc1; Nle = CCCC[C@H](N)C(=O)O; Orn = NCCC[C@H](N)C(=O)O; Dab = NCC[C@H](N)C(=O)O
Assays:
[1] = test system: Vero; assay: Cytotoxicity against African green monkey Vero cells up to 10 ug/ml after 48 hrs by neutral red dye based assay; type: cell-based; settings: chlorocebus sabaeus
[2] = test system: Candida albicans; assay: Antifungal activity against Candida albicans ATCC 90028 after 18 to 24 hrs by Alamar blue assay; type: functional
[3] = test system: Escherichia coli; assay: Anti-bacterial activity against Escherichia coli ATCC 35218 by CLSI method; type: functional
[4] = test system: Mycobacterium intracellulare; assay: Anti-bacterial activity against Mycobacterium intracellulare ATCC 23068 after 68 to 72 hrs by Alamar blue assay; type: functional, cell-based
[5] = test system: Nakaseomyces glabratus; assay: Antifungal activity against Candida glabrata ATCC 90030 after 18 to 24 hrs by Alamar blue assay; type: functional
[6] = test system: Aspergillus fumigatus; assay: Antifungal activity against Aspergillus fumigatus ATCC 90906 after 68 to 72 hrs by Alamar blue assay; type: functional
[7] = test system: Pseudomonas aeruginosa; assay: Anti-bacterial activity against Pseudomonas aeruginosa ATCC 27853 by CLSI method; type: functional
[8] = test system: Pichia kudriavzevii; assay: Antifungal activity against Candida krusei ATCC 6258 after 18 to 24 hrs by Alamar blue assay; type: functional
[9] = test system: Cryptococcus neoformans; assay: Antifungal activity against Cryptococcus neoformans ATCC 90113 after 68 to 72 hrs by Alamar blue assay; type: functional
[10] = test system: Cryptococcus neoformans; assay: Fungicidal activity against Cryptococcus neoformans ATCC 90113 after 68 to 72 hrs by Alamar blue assay; type: functional
[11] = test system: Staphylococcus aureus; assay: Anti-bacterial activity against Staphylococcus aureus ATCC 29213 by CLSI method; type: functional; settings: Staphylococcus aureus, ATCC 29213
[12] = test system: Pichia kudriavzevii; assay: Fungicidal activity against Candida krusei ATCC 6258 after 18 to 24 hrs by Alamar blue assay; type: functional

Compound | Activity [1] | IC50 [2] | IC50 [3] | IC50 [4] | IC50 [5] | IC50 [6] | IC50 [7] | IC50 [8] | MIC [9] [µg/mL] | MFC [10] [µg/mL] | MIC ([4]; Mycobacterium intracellulare, ATCC 23068) [µg/mL] | MIC [11] [µg/mL] | IC50 ([8]; Pichia kudriavzevii, ATCC 6258, read-out: IC50) [µg/mL] | MIC ([8]; Pichia kudriavzevii, ATCC 6258) [µg/mL] | MFC [12] [µg/mL] | IC50 ([4]; Mycobacterium intracellulare, ATCC 23068, read-out: IC50) [µg/mL]
Cc1ccc(C[C@H](NC(=O)[C@@H](Cc2ccccc2)NC(=O)[C@@H](Cc2c[nH]c3ccccc23)NC(=O)[C@@H](N)CCN)C(=O)N[C@H](Cc2ccccc2)C(=O)N[C@@H](Cc2cn(Cc3ccccc3)cn2)C(N)=O)cc1 (H-[Dab][dW][dF][Phe(4-Me)][dF][His(τ-Bzl)]-NH2) | Non-Toxic | Not Active | Not Active | Not Active | Not Active | Not Active | Not Active | – | – | – | – | – | – | – | – | –
CC[C@H](C)[C@H](NC(=O)[C@H](CC1CCCCC1)NC(=O)[C@H](Cc1ccccc1)NC(=O)[C@@H](N)CCCN)C(=O)N[C@H](Cc1ccccc1)C(=O)N[C@@H](Cc1cn(Cc2ccccc2)cn1)C(N)=O (H-[Orn]F[Cha]I[dF][His(τ-Bzl)]-NH2) | Non-Toxic | Not Active | – | Not Active | Not Active | Not Active | Not Active | Not Active | 2.5 (≈ 2.72 µM) | – | – | – | – | – | – | –
CC[C@H](C)[C@H](NC(=O)[C@H](CC1CCCCC1)NC(=O)[C@H](CC(C)C)NC(=O)[C@@H](N)CCCN)C(=O)N[C@H](Cc1ccccc1)C(=O)N[C@@H](Cc1cn(Cc2ccccc2)cn1)C(N)=O (H-[Orn]L[Cha]I[dF][His(τ-Bzl)]-NH2) | Non-Toxic | Not Active | – | Not Active | Not Active | Not Active | Not Active | Not Active | – | 2.5 (≈ 2.82 µM) | – | – | – | – | – | –
CC[C@H](C)[C@H](NC(=O)[C@H](CC1CCCCC1)NC(=O)[C@@H]1CCCN1C(=O)[C@@H](N)CCCN)C(=O)N[C@H](Cc1ccccc1)C(=O)N[C@@H](Cc1cn(Cc2ccccc2)cn1)C(N)=O (H-[Orn]P[Cha]I[dF][His(τ-Bzl)]-NH2) | Non-Toxic | Not Active | – | Not Active | Not Active | Not Active | Not Active | Not Active | – | 2.5 (≈ 2.88 µM) | – | – | – | – | – | –
CCCC[C@H](NC(=O)[C@@H](N)CCCN)C(=O)N[C@@H](CC1CCCCC1)C(=O)N[C@H](C(=O)N[C@H](Cc1ccccc1)C(=O)N[C@@H](Cc1cn(Cc2ccccc2)cn1)C(N)=O)[C@@H](C)CC (H-[Orn][Nle][Cha]I[dF][His(τ-Bzl)]-NH2) | Non-Toxic | Not Active | – | Not Active | Not Active | Not Active | Not Active | Not Active | – | 2.5 (≈ 2.82 µM) | – | – | – | – | – | –
CC[C@H](C)[C@H](NC(=O)[C@H](CC1CCCCC1)NC(=O)[C@@H](NC(=O)[C@@H](N)CCCN)c1ccccc1)C(=O)N[C@H](Cc1ccccc1)C(=O)N[C@@H](Cc1cn(Cc2ccccc2)cn1)C(N)=O (H-[Orn][Phg][Cha]I[dF][His(τ-Bzl)]-NH2) | Non-Toxic | Not Active | – | Not Active | Not Active | Not Active | Not Active | Not Active | – | – | – | – | – | – | – | –
CC[C@H](C)[C@H](NC(=O)[C@H](CC1CCCCC1)NC(=O)[C@@H](Cc1ccccc1)NC(=O)[C@@H](N)CCCN)C(=O)N[C@H](Cc1ccccc1)C(=O)N[C@@H](Cc1cn(Cc2ccccc2)cn1)C(N)=O (H-[Orn][dF][Cha]I[dF][His(τ-Bzl)]-NH2) | Non-Toxic | Not Active | – | – | Not Active | Not Active | Not Active | Not Active | – | 1.25 (≈ 1.36 µM) | – | – | – | – | – | –
CC[C@H](C)[C@H](NC(=O)[C@H](CC1CCCCC1)NC(=O)[C@@H](CC(C)C)NC(=O)[C@@H](N)CCCN)C(=O)N[C@H](Cc1ccccc1)C(=O)N[C@@H](Cc1cn(Cc2ccccc2)cn1)C(N)=O (H-[Orn][dL][Cha]I[dF][His(τ-Bzl)]-NH2) | Non-Toxic | Not Active | – | – | Not Active | Not Active | Not Active | Not Active | 1.25 (≈ 1.41 µM) | – | 20 (≈ 22.6 µM) | – | – | – | – | –
CC[C@H](C)[C@H](NC(=O)[C@H](CC1CCCCC1)NC(=O)[C@H]1CCCN1C(=O)[C@@H](N)CCCN)C(=O)N[C@H](Cc1ccccc1)C(=O)N[C@@H](Cc1cn(Cc2ccccc2)cn1)C(N)=O (H-[Orn][dP][Cha]I[dF][His(τ-Bzl)]-NH2) | Non-Toxic | Not Active | – | Not Active | Not Active | Not Active | Not Active | Not Active | 2.5 (≈ 2.88 µM) | 2.5 (≈ 2.88 µM) | – | – | – | – | – | –
CC(C)[C@H](NC(=O)[C@H](CC1CCCCC1)NC(=O)[C@@H](Cc1c[nH]c2ccccc12)NC(=O)[C@@H](N)CCCN)C(=O)N[C@H](Cc1ccccc1)C(=O)N[C@@H](Cc1cn(Cc2ccccc2)cn1)C(N)=O (H-[Orn][dW][Cha]V[dF][His(τ-Bzl)]-NH2) | Non-Toxic | Not Active | Not Active | – | Not Active | Not Active | Not Active | Not Active | 1.25 (≈ 1.32 µM) | 1.25 (≈ 1.32 µM) | – | – | – | – | – | –
CC[C@@H](C)[C@@H](NC(=O)[C@H](CC1CCCCC1)NC(=O)[C@@H](Cc1c[nH]c2ccccc12)NC(=O)[C@@H](N)CCCN)C(=O)N[C@H](Cc1ccccc1)C(=O)N[C@@H](Cc1cn(Cc2ccccc2)cn1)C(N)=O (H-[Orn][dW][Cha][dI][dF][His(τ-Bzl)]-NH2) | Non-Toxic | – | – | – | Not Active | Not Active | Not Active | – | – | – | – | – | – | – | – | –
CC(C)C[C@@H](NC(=O)[C@H](CC1CCCCC1)NC(=O)[C@@H](Cc1c[nH]c2ccccc12)NC(=O)[C@@H](N)CCCN)C(=O)N[C@H](Cc1ccccc1)C(=O)N[C@@H](Cc1cn(Cc2ccccc2)cn1)C(N)=O (H-[Orn][dW][Cha][dL][dF][His(τ-Bzl)]-NH2) | Non-Toxic | Not Active | Not Active | – | Not Active | Not Active | Not Active | – | 2.5 (≈ 2.61 µM) | – | – | 20 (≈ 20.9 µM) | 20 (≈ 20.9 µM) | – | – | –
Cc1ccc(C[C@H](NC(=O)[C@@H](Cc2ccccc2)NC(=O)[C@@H](Cc2c[nH]c3ccccc23)NC(=O)[C@@H](N)CCCN)C(=O)N[C@H](Cc2ccccc2)C(=O)N[C@@H](CCN)C(N)=O)cc1 (H-[Orn][dW][dF][Phe(4-Me)][dF][Dab]-NH2) | – | – | – | – | – | – | – | – | 1.25 (≈ 1.43 µM) | 1.25 (≈ 1.43 µM) | – | – | – | 20 (≈ 22.9 µM) | 20 (≈ 22.9 µM) | –
O=C(O)c1cn(C2CC2)c2cc(N3CCNCC3)c(F)cc2c1=O [CIPROFLOXACIN] | – | – | – | – | – | – | – | – | – | – | – | – | – | – | – | 0.47 (≈ 1.42 µM)

Source: ChEMBL document CHEMBL4024712, “Synthesis, stability and mechanistic studies of potent anticryptococcal hexapeptides” (Eur J Med Chem, 2017)
